Test results from patent US9884821B2, “N1-cyclic amine-N5-substituted biguanide derivatives, methods of preparing the same and pharmaceutical composition comprising the same” (IMMUNOMET THERAPEUTICS INC., priority 2013, dated 2018).

How the values were obtained:
HCT116 cells = experiment: Effect of inhibiting cancer cell proliferation (MTT) in HCT116 cells; format: cell-based, human; conditions: Homo sapiens, HCT-116, 48 h; for inhibition at 25 µM: read-out: Cell growth inhibition (%) at 25 μM; for inhibition at 100 µM: read-out: Cell growth inhibition (%) at 100 μM
Method in brief: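 HCT116 colorectal cells (about 5,000 per well, DMEM with 10% FBS) treated with 100, 25, 6.25, 1.56 or 0.39 μM compound for 48 h. MTT added for 3 h, formazan read at 560 nm; GIC50 taken from viability relative to untreated cells.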

AMPK = AMPK activation effect (AMPK [pT172] ELISA) in MCF7 cells; format: cell-based, human; conditions: 24 hours; for AMPK activation effect (%) 5 μM / AMPK activation effect (%) 10 μM / AMPK activation effect (%) 50 μM: AMPKα Thr172 phosphorylation relative to untreated cells; for AC150: concentration at which AMPK activation reached 150%
Method in brief: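 MCF7 cells in DMEM/10% FBS were treated 24 h with compounds at 5, 10 and 50 uM. Lysates (20 μg protein) were assayed by ELISA for AMPKα Thr172 phosphorylation as the activation read-out.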

SMILES	GI50 (HCT116 cells)	inhibition at 25 µM (HCT116 cells)	AMPK activation effect (%) 5 μM (AMPK)	AMPK activation effect (%) 10 μM (AMPK)	AC150 (AMPK)	inhibition at 100 µM (HCT116 cells)	AMPK activation effect (%) 50 μM (AMPK)
Cl.N=C(NC(=N)N1CC=CC1)Nc1cccc(OC(F)(F)F)c1 [Example 52, N1-1,2-dihydropyrrole-N5-(3-trifluoromethoxy)phenyl biguanide hydrochloride]	15.4 µM			352%	2.7 µM	100%	
Cl.N=C(NC(=N)N1CC=CC1)Nc1ccccc1 [Example 44, N1-1,2-dihydropyrrole-N5-phenyl biguanide hydrochloride]	> 100 µM			289%	1.7 µM	27.8%	577%
Cl.N=C(NC(=N)N1CC=CCC1)Nc1ccc(OC(F)(F)F)c(F)c1 [Example 34, N1-1,2,3,6-tetrahydropyridine-N5-(3-fluoro, 4-trifluoromethoxy)phenyl biguanide hydrochloride]	6.6 µM			925%	0.29 µM	99.4%	
CC1=CCN(C(=N)NC(=N)Nc2cccc(C(F)(F)F)c2)C1.Cl [Example 19, N1-(3-methyl)-1,2-dihydropyrrole-N5-(3-trifluoromethyl)phenyl biguanide hydrochloride]	9.1 µM			306%	1.5 µM	99.6%	
Cl.N=C(NC(=N)N1CC=CCC1)Nc1ccc(Cl)c(C(F)(F)F)c1 [Example 33, N1-1,2,3,6-tetrahydropyridine-N5-(4-chloro, 3-trifluoromethyl)phenyl biguanide hydrochloride]	3.7 µM			992%	0.79 µM	99.4%	
Cl.N=C(NCc1cccc(OC(F)(F)F)c1)NC(=N)N1CC=CC1 [Example 14, N1-1,2-dihydropyrrole-N5-(3-trifluoromethoxy)benzyl biguanide hydrochloride]	17.5 µM			151%	8.4 µM	98.8%	507%
Cl.N=C(NC(=N)N1CC=CCC1)Nc1cccc(C(F)(F)F)c1 [Example 31, N1-1,2,3,6-tetrahydropyridine-N5-(3-trifluoromethyl)phenyl biguanide hydrochloride]	7.8 µM			391%	1.8 µM	99.5%	
Cl.N=C(NC(=N)N1CC=CC1)Nc1ccc(F)cc1 [Example 7, N1-1,2-dihydropyrrole-N5-(4-fluoro)phenyl biguanide hydrochloride]	> 100 µM			94%	>50 µM	19.8%	109%

More lines, main results first:

GI50 (HCT116 cells)	SMILES	inhibition at 25 µM (HCT116 cells)	AMPK activation effect (%) 5 μM (AMPK)	AMPK activation effect (%) 10 μM (AMPK)	AC150 (AMPK)	inhibition at 100 µM (HCT116 cells)	AMPK activation effect (%) 50 μM (AMPK)
6.8 µM	CC1CCCCN1C(=N)NC(=N)Nc1ccc(Cl)c(C(F)(F)F)c1.Cl (stereo not drawn) [Example 80, N1-(2-methyl)piperidine-N5-(4-chloro, 3-trifluoromethyl)phenyl biguanide hydrochloride]	99.7%	334%	590%	1.1 µM		
18.3 µM	CC1CCCN(C(=N)NC(=N)NCc2cccc(C(F)(F)F)c2)C1.Cl (stereo not drawn) [Example 65, N1-(3-methyl)piperidine-N5-(3-trifluoromethyl)benzyl biguanide hydrochloride]	66.7%	147%	274%	2.8 µM		
10 µM	CC1CCCN(C(=N)NC(=N)Nc2ccc(Cl)cc2)C1.Cl (stereo not drawn) [Example 87, N1-(3-methyl)piperidine-N5-(4-chloro)phenyl biguanide hydrochloride]	100%	219%	297%	1.9 µM		
6.2 µM	CC1CCCC(C)N1C(=N)NC(=N)Nc1ccc(OC(F)(F)F)cc1.Cl (stereo not drawn) [Example 89, N1-(2,6-dimethyl)piperidine-N5-(4-trifluoromethoxy)phenyl biguanide hydrochloride]	100%	153%	198%	4.7 µM		
9.2 µM	CC1CCCN(C(=N)NC(=N)Nc2ccc(F)cc2)C1.Cl (stereo not drawn) [Example 67, N1-(3-methyl)piperidine-N5-(4-fluoro)phenyl biguanide hydrochloride]	100%	258%	427%	1.6 µM		
3.2 µM	CC1CCCC(C)N1C(=N)NC(=N)Nc1cccc(OC(F)(F)F)c1.Cl (stereo not drawn) [Example 90, N1-(2,6-dimethyl)piperidine-N5-(3-trifluoromethoxy)phenyl biguanide hydrochloride]	100%	281%	317%	0.8 µM		
9.4 µM	CC1CCCCN1C(=N)NC(=N)Nc1cccc(C(F)(F)F)c1.Cl (stereo not drawn) [Example 79, N1-(2-methyl)piperidine-N5-(3-trifluoromethyl)phenyl biguanide hydrochloride]	98.9%	177%	515%	1.9 µM		
7.5 µM	CC1CCCC(C)N1C(=N)NC(=N)Nc1cccc(C(F)(F)F)c1.Cl (stereo not drawn) [Example 92, N1-(2,6-dimethyl)piperidine-N5-(3-trifluoromethyl)phenyl biguanide hydrochloride]	100%	324%	417%	0.8 µM		
